From article PMC6689975, “Novel Cell Wall Antifungals Reveal a Special Synergistic Activity in pbr1 Mutants Resistant to the Glucan Synthesis Antifungals Papulacandins and Echinocandins” (Frontiers in Microbiology, 2019)
Values after ≈ are worked out from the molar mass of the structure shown.

tested on: T1, S. cerevisiae wild-type CVX12-3A; experiment: microbe, parasite or virus in culture; parameters: species or system whole yeast cells; micro-culture broth dilution MIC in YES at 30 C, turbidity, complete growth inhibition; settings: Saccharomyces cerevisiae, read-out: MIC
T1 construct: CVX12-3A
Procedure: (§1) Standard YEPD (Yeast Extract, Peptone, Dextrose) ([Sherman, 1990]), YEPD+S (YEPD with 1.2M sorbitol), YES (Yeast Extract, Dextrose and Supplements of Adenine, Histidine, Leucine, Uracil and Lysine) ([Alfa et al., 1993]) and YES+S (YES with 1.2 M sorbitol) ([Ribas et al., 1991]; [Ishiguro et al., 1997]), media were used for determination of MIC values of the tested compounds. A stock solution of 10 mg/ml of each tested compounds was prepared in DMSO and serial dilutions in DMSO were prepared. The final concentration of DMSO was 2% in the YEPD medium. […] The serial dilutions of compounds were dispensed into test tubes with 1 ml of YEPD or YEPD+S to make final concentrations of 200, 100, 50, 25, 12.5, 6.26, 3.125, 1.6, 0.8 and 0.4 μg/ml. The tested yeast strains were previously grown in YEPD, YEPD+S, YES or YES+S agar plates at 30°C for 48 h. Micro-culture assays of large numbers of samples were analyzed as described) ([Martins et al., 2011]). Essentially early log-phase cells were grown in YEPD, YEPD+S, YES or YES+S (1.2 M sorbitol) medium at 30°C, and diluted to cell density of 4 X 10^6 cells/ml in YEPD, YEPD+S, YES or YES+S medium and aliquots of 100 μl were dispensed into each small test tube (3 ml test tube size). Then, another 100 μl of YEPD, YEPD+S, YES or YES+S with the corresponding dilution of each compound at 2X concentration (4% DMSO) was added. The final volume was 200 μl, with the cells diluted to of 2 X 10^6 cells/ml and each compound diluted to 1X final concentration, containing increasing concentrations of antifungal (0, 1, 2, 5, 10, 20, 50, 100 and 200 μg/ml) or an equivalent volume of solvent (2% DMSO). The cells were grown at 30°C in an orbital roller and turbidity was analyzed after 24 and 48 h of incubation. The MIC was determined as the minimal concentration of tested compound that produced complete cell growth inhibition and kept the medium clear. The MIC values were calculated from at least three independent experiments. Next, the first generation of isochromanones (1E-16E) was also screened in YES medium (Table 5) and exerted a weaker antifungal potency than in YEPD medium and also than the second family of isochromanones in YES medium (17E-30E) (Table 6). The strains are partly different from the previously mentioned ones (Tables 5, 6) analyzing two wild type C. albicans strains because they behaved similarly in YEPD. It is remarkable that there was no effect against either the C. albicans, the S. cerevisiae, or the S. pombe wild-type strains, except with 30E.

SMILES	MIC
O=C1OCc2ccccc2/C1=C\c1cccc(Cl)c1 [28E, E-4-[(3′-Chlorophenyl)Methylene]-3-Isochromanone]	> 200 µg/mL
O=C1OCc2ccccc2/C1=C/c1cccc([N+](=O)[O-])c1 [24Z]	> 200 µg/mL
O=C1OCc2ccccc2/C1=C\c1cccc([N+](=O)[O-])c1 [24E]	> 200 µg/mL
COc1cc(/C=C2/C(=O)OCc3ccccc32)cc(OC)c1OC [25E]	> 200 µg/mL
O=C1OCc2ccccc2/C1=C/c1cccc(Cl)c1 [28Z, Z-4-[(3′-chlorophenyl)methylene]-3-isochromanone]	> 200 µg/mL
Cc1cc(C)c(/C=C2/C(=O)OCc3ccccc32)c(C)c1 [18E]	> 200 µg/mL
O=C1OCc2ccccc2/C1=C\c1ccc(Cl)cc1 [23E]	> 200 µg/mL
O=C1OCc2ccccc2/C1=C\c1ccc(O)cc1 [29E, E-4-[(4′-Hydroxyphenyl)Methylene]-3-Isochromanone]	> 200 µg/mL
O=C1OCc2ccccc2/C1=C\c1ccc([N+](=O)[O-])cc1 [17E, E-4-[(4′-Nitrophenyl)Methylene]-3-Isochromanone]	200 µg/mL (≈ 711 µM)
COc1cccc(/C=C2/C(=O)OCc3ccccc32)c1 [22E]	> 200 µg/mL
COc1cc(/C=C2/C(=O)OCc3ccccc32)ccc1O [30E, E-4-[(4′-Hydroxy-3′-Methoxyphenyl)Methylene]-3-Isochromanone]	150 µg/mL (≈ 531 µM)
COc1ccc(/C=C2/C(=O)OCc3ccccc32)cc1OC [26E, E-4-[(3′,4′-Dimethoxyphenyl)Methylene]-3-Isochromanone]	> 200 µg/mL

tested on: T2, S. pombe wild-type 972 h-; experiment: microbe, parasite or virus in culture; parameters: species or system whole yeast cells; micro-culture broth dilution MIC in YES at 30 C, turbidity, complete growth inhibition; settings: Schizosaccharomyces pombe, read-out: MIC
T2 construct: 972 h-
Procedure: as §1

SMILES	MIC
O=C1OCc2ccccc2/C1=C\c1cccc(Cl)c1 [28E, E-4-[(3′-Chlorophenyl)Methylene]-3-Isochromanone]	> 200 µg/mL
O=C1OCc2ccccc2/C1=C/c1cccc([N+](=O)[O-])c1 [24Z]	> 200 µg/mL
O=C1OCc2ccccc2/C1=C\c1cccc([N+](=O)[O-])c1 [24E]	> 200 µg/mL
COc1cc(/C=C2/C(=O)OCc3ccccc32)cc(OC)c1OC [25E]	> 200 µg/mL
O=C1OCc2ccccc2/C1=C/c1cccc(Cl)c1 [28Z, Z-4-[(3′-chlorophenyl)methylene]-3-isochromanone]	> 200 µg/mL
Cc1cc(C)c(/C=C2/C(=O)OCc3ccccc32)c(C)c1 [18E]	> 200 µg/mL
O=C1OCc2ccccc2/C1=C\c1ccc(Cl)cc1 [23E]	> 200 µg/mL
O=C1OCc2ccccc2/C1=C\c1ccc(O)cc1 [29E, E-4-[(4′-Hydroxyphenyl)Methylene]-3-Isochromanone]	> 200 µg/mL
O=C1OCc2ccccc2/C1=C\c1ccc([N+](=O)[O-])cc1 [17E, E-4-[(4′-Nitrophenyl)Methylene]-3-Isochromanone]	> 200 µg/mL
COc1cccc(/C=C2/C(=O)OCc3ccccc32)c1 [22E]	> 200 µg/mL
COc1cc(/C=C2/C(=O)OCc3ccccc32)ccc1O [30E, E-4-[(4′-Hydroxy-3′-Methoxyphenyl)Methylene]-3-Isochromanone]	150 µg/mL (≈ 531 µM)
COc1ccc(/C=C2/C(=O)OCc3ccccc32)cc1OC [26E, E-4-[(3′,4′-Dimethoxyphenyl)Methylene]-3-Isochromanone]	> 200 µg/mL

tested on: C. albicans wild-type; experiment: microbe, parasite or virus in culture; parameters: species or system whole yeast cells; micro-culture broth dilution MIC in YES at 30 C, turbidity, complete growth inhibition; settings: Candida albicans, read-out: MIC
Procedure: as §1

SMILES	MIC
O=C1OCc2ccccc2/C1=C\c1cccc(Cl)c1 [28E, E-4-[(3′-Chlorophenyl)Methylene]-3-Isochromanone]	> 200 µg/mL
O=C1OCc2ccccc2/C1=C/c1cccc([N+](=O)[O-])c1 [24Z]	> 200 µg/mL
O=C1OCc2ccccc2/C1=C\c1cccc([N+](=O)[O-])c1 [24E]	> 200 µg/mL
COc1cc(/C=C2/C(=O)OCc3ccccc32)cc(OC)c1OC [25E]	> 200 µg/mL
O=C1OCc2ccccc2/C1=C/c1cccc(Cl)c1 [28Z, Z-4-[(3′-chlorophenyl)methylene]-3-isochromanone]	> 200 µg/mL
Cc1cc(C)c(/C=C2/C(=O)OCc3ccccc32)c(C)c1 [18E]	> 200 µg/mL
O=C1OCc2ccccc2/C1=C\c1ccc(Cl)cc1 [23E]	> 200 µg/mL
O=C1OCc2ccccc2/C1=C\c1ccc(O)cc1 [29E, E-4-[(4′-Hydroxyphenyl)Methylene]-3-Isochromanone]	> 200 µg/mL
O=C1OCc2ccccc2/C1=C\c1ccc([N+](=O)[O-])cc1 [17E, E-4-[(4′-Nitrophenyl)Methylene]-3-Isochromanone]	> 200 µg/mL
COc1cccc(/C=C2/C(=O)OCc3ccccc32)c1 [22E]	> 200 µg/mL
COc1cc(/C=C2/C(=O)OCc3ccccc32)ccc1O [30E, E-4-[(4′-Hydroxy-3′-Methoxyphenyl)Methylene]-3-Isochromanone]	> 200 µg/mL
COc1ccc(/C=C2/C(=O)OCc3ccccc32)cc1OC [26E, E-4-[(3′,4′-Dimethoxyphenyl)Methylene]-3-Isochromanone]	> 200 µg/mL

tested on: C. albicans wild-type; experiment: microbe, parasite or virus in culture; parameters: species or system whole yeast cells; micro-culture broth dilution MIC in YES at 30 C, turbidity, complete growth inhibition; settings: Candida albicans, read-out: MIC; remark: another data set of the same source
Procedure: as §1

SMILES	MIC
O=C1OCc2ccccc2/C1=C\c1cccc(Cl)c1 [28E, E-4-[(3′-Chlorophenyl)Methylene]-3-Isochromanone]	> 200 µg/mL
O=C1OCc2ccccc2/C1=C/c1cccc([N+](=O)[O-])c1 [24Z]	> 200 µg/mL
O=C1OCc2ccccc2/C1=C\c1cccc([N+](=O)[O-])c1 [24E]	> 200 µg/mL
COc1cc(/C=C2/C(=O)OCc3ccccc32)cc(OC)c1OC [25E]	> 200 µg/mL
O=C1OCc2ccccc2/C1=C/c1cccc(Cl)c1 [28Z, Z-4-[(3′-chlorophenyl)methylene]-3-isochromanone]	> 200 µg/mL
Cc1cc(C)c(/C=C2/C(=O)OCc3ccccc32)c(C)c1 [18E]	> 200 µg/mL
O=C1OCc2ccccc2/C1=C\c1ccc(Cl)cc1 [23E]	> 200 µg/mL
O=C1OCc2ccccc2/C1=C\c1ccc(O)cc1 [29E, E-4-[(4′-Hydroxyphenyl)Methylene]-3-Isochromanone]	> 200 µg/mL
O=C1OCc2ccccc2/C1=C\c1ccc([N+](=O)[O-])cc1 [17E, E-4-[(4′-Nitrophenyl)Methylene]-3-Isochromanone]	> 200 µg/mL
COc1cccc(/C=C2/C(=O)OCc3ccccc32)c1 [22E]	> 200 µg/mL
COc1cc(/C=C2/C(=O)OCc3ccccc32)ccc1O [30E, E-4-[(4′-Hydroxy-3′-Methoxyphenyl)Methylene]-3-Isochromanone]	> 200 µg/mL
COc1ccc(/C=C2/C(=O)OCc3ccccc32)cc1OC [26E, E-4-[(3′,4′-Dimethoxyphenyl)Methylene]-3-Isochromanone]	> 200 µg/mL
